Data published in article PMC11066877, “Development and Characterization of Novel FAP-Targeted Theranostic Pairs: A Bench-to-Bedside Study” (Research, 2023).

Experiments:
[1] = molecular target: T1, recombinant human FAP protein (Homo sapiens, UniProt Q12884); assay: SPR binding to immobilized recombinant human FAP protein
T1 construct: purchased ACRO Biosystems FAP-H5244
T1 sequence (Q12884 1-760): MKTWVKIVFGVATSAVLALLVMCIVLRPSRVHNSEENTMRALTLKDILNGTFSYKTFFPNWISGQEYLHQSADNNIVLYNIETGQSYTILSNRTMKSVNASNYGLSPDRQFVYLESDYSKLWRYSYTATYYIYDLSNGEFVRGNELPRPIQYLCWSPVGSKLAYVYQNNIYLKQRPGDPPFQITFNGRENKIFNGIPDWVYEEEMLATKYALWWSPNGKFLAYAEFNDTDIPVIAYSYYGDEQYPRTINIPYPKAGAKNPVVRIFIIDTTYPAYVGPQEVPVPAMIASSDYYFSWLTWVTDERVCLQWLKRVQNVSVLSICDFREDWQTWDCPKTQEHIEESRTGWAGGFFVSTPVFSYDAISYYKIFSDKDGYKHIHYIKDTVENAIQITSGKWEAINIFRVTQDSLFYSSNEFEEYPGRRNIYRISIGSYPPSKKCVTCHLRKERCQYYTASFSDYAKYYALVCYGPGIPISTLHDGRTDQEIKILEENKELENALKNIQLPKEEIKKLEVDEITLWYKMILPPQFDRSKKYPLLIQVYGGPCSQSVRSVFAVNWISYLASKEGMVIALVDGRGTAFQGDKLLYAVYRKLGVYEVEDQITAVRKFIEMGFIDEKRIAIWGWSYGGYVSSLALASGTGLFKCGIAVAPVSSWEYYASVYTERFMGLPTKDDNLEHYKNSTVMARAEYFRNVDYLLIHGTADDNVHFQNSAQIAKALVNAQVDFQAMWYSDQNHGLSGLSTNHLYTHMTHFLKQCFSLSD
Method: (§1) The Biacore SPR interaction study was conducted to determine the binding kinetics between the peptides and the immobilized human FAP protein (FAP-H5244, ACRO Biosystems) or murine FAP protein (FAP-M52H3, ACRO Biosystems) as target antigens. The final binding affinity, represented by the equilibrium dissociation degree (M) or KD, was calculated by examining the relationship between the binding rate constant (ka) (M^−1 s^−1) and the dissociation rate (kd) (s^−1).

[2] = molecular target: T2, recombinant murine FAP protein (Mus musculus, UniProt P97321); assay: SPR binding to immobilized recombinant murine FAP protein
T2 construct: purchased ACRO Biosystems FAP-M52H3
T2 sequence (P97321 1-761): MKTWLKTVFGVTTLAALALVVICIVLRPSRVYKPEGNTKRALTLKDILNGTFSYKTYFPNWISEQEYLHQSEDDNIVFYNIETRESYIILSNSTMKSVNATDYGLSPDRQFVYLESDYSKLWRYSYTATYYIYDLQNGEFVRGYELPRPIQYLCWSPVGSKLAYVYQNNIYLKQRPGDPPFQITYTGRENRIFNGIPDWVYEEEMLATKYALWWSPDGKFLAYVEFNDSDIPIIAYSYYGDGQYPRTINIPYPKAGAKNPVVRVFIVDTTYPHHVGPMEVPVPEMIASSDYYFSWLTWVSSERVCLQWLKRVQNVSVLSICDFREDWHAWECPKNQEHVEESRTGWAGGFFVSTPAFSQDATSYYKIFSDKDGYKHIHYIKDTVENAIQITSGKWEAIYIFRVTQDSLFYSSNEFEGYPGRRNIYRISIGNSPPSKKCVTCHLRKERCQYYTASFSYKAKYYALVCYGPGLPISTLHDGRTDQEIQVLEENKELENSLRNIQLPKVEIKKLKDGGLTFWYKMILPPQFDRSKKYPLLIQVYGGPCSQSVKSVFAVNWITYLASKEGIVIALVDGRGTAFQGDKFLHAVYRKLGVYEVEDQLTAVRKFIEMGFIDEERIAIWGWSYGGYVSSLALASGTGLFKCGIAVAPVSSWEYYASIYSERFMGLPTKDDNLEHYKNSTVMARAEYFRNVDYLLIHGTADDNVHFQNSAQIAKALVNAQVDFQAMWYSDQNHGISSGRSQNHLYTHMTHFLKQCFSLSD
Method: as §1

[3] = microPET/CT imaging, ROI analysis, HT1080-FAP tumor models; format: in vivo, mice; conditions: nude (thymus-free), mouse, intravenous, 3 MBq, HT1080-FAP tumor
Method: (§2) A human pancreatic cancer cell line BxPC-3 and a murine pancreatic cancer cell Panc-02 were obtained from the American Type Culture Collection. The pancreatic cancer cell line T3M-4 was purchased by MeisenCTCC (Zhejiang, China). BxPC-3 and T3M-4 cell lines were grown in RPMI 1640 medium (Shanghai BasalMedia Technologies Co., LTD.) containing 10% FBS (GE Healthcare, Chicago, IL, USA) and 1% penicillin–streptomycin solution (Invitrogen). To culture the Panc-02 cell line, a medium called Dulbecco’s modified Eagle medium from Shanghai BasalMedia Technologies Co., LTD. was used, which consisted of 10% FBS. The cell line HT-1080 was grown in MEM medium (Shanghai BasalMedia Technologies Co., LTD.) supplemented with 10% FBS, 1% penicillin-streptomycin solution, and 1% nonessential amino acids (NEAA-11140050; Gibco). A human fibrosarcoma cell line was stably transfected with FAP (HT1080-FAP) and cultured, as we previously described. All cell lines were cultured in a humid incubator with 5% CO2 at a temperature of 37 °C. Approval was granted by the Institutional Animal Care and Use Committee (Renji Hospital, School of Medicine, Shanghai Jiao Tong University) for all experimental protocols and procedures related to animal care. Panc-02 cells were implanted by subcutaneous injection of 5 × 10^6 tumor cells suspended in 100 μl PBS and matrigel matrix (Corning) with equal volume into the upper limb flank of C57BL/6 mice (Shanghai Sheng Chang Biotechnology Co., Ltd.). Four- to 6-week-old thymus-free nude mice (GemPharmatech) were subcutaneously inoculated with BxPC-3, T3M-4, HT-1080, and HT1080-FAP cells (5 × 10^6 in 100 μl of PBS mixing with 100 μl matrigel matrix) in the right shoulder. Follow-up microPET/CT imaging and ex vivo biodistribution experiments were performed when the tumor diameter reached 8 to 9 mm.
MicroPET imaging was performed on isoflurane-anesthetized mice injected intravenously via the lateral tail vein with around 3 MBq (2.5 nmol) of the radioligand at certain times. Regarding the FD1 blocking group, an excessive amount of unlabeled FD1 (200-fold) was simultaneously injected with [^68Ga]Ga-DOTA-FD1 into the tail vein of another batch of mice. Images were acquired using an IRIS PET/CT system (Inviscan Imaging Systems). PET data were reconstructed using a nonscatter-corrected 3D-ordered subset expectation […]/maximum a posteriori (OSEM3D/MAP) algorithm. The information was analyzed using OsiriX Lite software (Pixmeo SARL) and Inveon Research Workplace (Siemens Preclinical Solutions). The percentage of injected dose per gram of tissue (%ID/g, mean ± SD) was utilized to present the distribution of tracers in the ROI, encompassing tumor, heart, lung, liver, kidney, and muscle.

[4] = microPET/CT imaging, ROI analysis, BxPC-3 tumor models; format: in vivo, mice; conditions: nude (thymus-free), mouse, intravenous, 3 MBq, 4 h p.i.
Method: as §2, with “Follow-up microPET/CT imaging and ex vivo biodistribution experiments were performed when the tumor diameter reached 8 to 9 mm.” left out
(§3) MicroPET imaging was performed on isoflurane-anesthetized mice injected intravenously via the lateral tail vein with around 3 MBq (2.5 nmol) of the radioligand at certain times. […] The information was analyzed using OsiriX Lite software (Pixmeo SARL) and Inveon Research Workplace (Siemens Preclinical Solutions). […]

[5] = microPET/CT imaging, ROI analysis, Panc-02 tumor models; format: in vivo, mice; conditions: C57BL/6, mouse, intravenous, 3 MBq, 4 h p.i.
Method: as §2, with “Follow-up microPET/CT imaging and ex vivo biodistribution experiments were performed when the tumor diameter reached 8 to 9 mm.” left out
as §3

[6] = microPET/CT imaging, ROI analysis, HT-1080 tumor models; format: in vivo, mice; conditions: nude (thymus-free), mouse, intravenous, 3 MBq, 4 h p.i.
Method: as §2, with “Follow-up microPET/CT imaging and ex vivo biodistribution experiments were performed when the tumor diameter reached 8 to 9 mm.” left out
as §3

[7] = Ex vivo biodistribution after imaging, HT-1080 tumor models; format: in vivo, mice; conditions: nude (thymus-free), mouse, intravenous, 3 MBq, total radioactivity, 4.5 h p.i.
Method: A human pancreatic cancer cell line BxPC-3 and a murine pancreatic cancer cell Panc-02 were obtained from the American Type Culture Collection. The pancreatic cancer cell line T3M-4 was purchased by MeisenCTCC (Zhejiang, China). BxPC-3 and T3M-4 cell lines were grown in RPMI 1640 medium (Shanghai BasalMedia Technologies Co., LTD.) containing 10% FBS (GE Healthcare, Chicago, IL, USA) and 1% penicillin–streptomycin solution (Invitrogen). To culture the Panc-02 cell line, a medium called Dulbecco’s modified Eagle medium from Shanghai BasalMedia Technologies Co., LTD. was used, which consisted of 10% FBS. The cell line HT-1080 was grown in MEM medium (Shanghai BasalMedia Technologies Co., LTD.) supplemented with 10% FBS, 1% penicillin-streptomycin solution, and 1% nonessential amino acids (NEAA-11140050; Gibco). […]
After imaging collection and image reconstruction, samples from euthanized experimental mice, including blood and multiple significant organs, were harvested and weighed. The radioactivity in each collected tissue was counted using an automated gamma counter (Wizard 2480, PerkinElmer) and the accumulation of radioactivity in different tissues and organs was quantified and expressed as %ID/g (mean ± SD). […] At the end of each probe imaging and radioactivity counting study, tumor tissues were fixed in paraformaldehyde tissue fixative. […]

[8] = Ex vivo biodistribution after imaging, HT1080-FAP tumor models; format: in vivo, mice; conditions: nude (thymus-free), mouse, intravenous, 3 MBq, total radioactivity; HT1080-FAP tumor, 4.5 h p.i.
Method: as §2
After imaging collection and image reconstruction, samples from euthanized experimental mice, including blood and multiple significant organs, were harvested and weighed. The radioactivity in each collected tissue was counted using an automated gamma counter (Wizard 2480, PerkinElmer) and the accumulation of radioactivity in different tissues and organs was quantified and expressed as %ID/g (mean ± SD). [^177Lu]Lu-DOTA-FD1 (~1.11 MBq, n = 3), [^177Lu]Lu-DOTA-FD2 (~1.11 MBq, n = 3), and [^177Lu]Lu-DOTA-FD3 (~1.11 MBq, n = 3) were injected into the tail vein of free nude mice at 6 h, 24 h, and 24 h for ex vivo biodistribution to verify the circulation time of the 3 probes in vivo. Biodistribution data from tumor-bearing mice injected with [^177Lu]Lu-DOTA-FD3 at 45 h (~1.11 MBq, n = 4) and 90 h (~1.11 MBq, n = 3) validated the prolonged enrichment of the probe at the tumor site. At the end of each probe imaging and radioactivity counting study, tumor tissues were fixed in paraformaldehyde tissue fixative. Briefly, sections of 10 μm were cut and stained for H&E following the standard protocols. IHC staining with a FAP antibody (ab227703, Abcam) was performed only on tumor tissues following accepted techniques.

| Kd [1] [nM] | Kd [2] [nM] | tissue uptake at 0.5 h ([3]; 30 min) [%ID/g] | tissue uptake at 2 h ([3]; 2 h) [%ID/g] | tissue uptake at 4 h ([3]; 4 h) [%ID/g] | tissue uptake at 4 h [4] [%ID/g] | tissue uptake at 4 h [5] [%ID/g] | tissue uptake at 4 h [6] [%ID/g] | tissue uptake at 4.5 h [7] [%ID/g] | tissue uptake at 4.5 h [8] [%ID/g] | SMILES |
| --- | --- | --- | --- | --- | --- | --- | --- | --- | --- | --- |
| 3.3 | 10.2 |  |  |  |  |  |  |  |  | CCCCCC(=O)N[C@H]1CSCc2cc(CSCCNC(=O)[C@H](CCCCN)NC(=O)[C@@H](NC(=O)[C@H](CCSC)NC(=O)CN3CCN(CC(=O)O)CCN(CC(=O)O)CCN(CC(=O)O)CC3)C(C)C)cc(c2)CSC[C@@H](C(=O)O)NC(=O)[C@H](Cc2ccccc2)NC(=O)[C@H](CCC(N)=O)NC(=O)[C@H]([C@@H](C)O)NC(=O)[C@@H]2CCCN2C(=O)[C@@H]2CCCN2C1=O [FD1] |
| 2.06 | 11.6 |  |  |  |  |  |  |  |  | CCCCCC(=O)N[C@H]1CSCc2cc(CSCCNC(=O)[C@H](CCCCNC(=O)CCCc3ccc(I)cc3)NC(=O)CN3CCN(CC(=O)O)CCN(CC(=O)O)CCN(CC(=O)O)CC3)cc(c2)CSC[C@@H](C(=O)O)NC(=O)[C@H](Cc2ccccc2)NC(=O)[C@H](CCC(N)=O)NC(=O)[C@H]([C@@H](C)O)NC(=O)[C@@H]2CCCN2C(=O)[C@@H]2CCCN2C1=O [FD2] |
| 6.25 | 13.7 |  |  |  |  |  |  |  |  | CCCCCC(=O)N[C@H]1CSCc2cc(CSCCNC(=O)[C@H](CCCCNC(=O)CCCc3ccc(I)cc3)NC(=O)[C@@H](NC(=O)[C@H](CCSC)NC(=O)CN3CCN(CC(=O)O)CCN(CC(=O)O)CCN(CC(=O)O)CC3)C(C)C)cc(c2)CSC[C@@H](C(=O)O)NC(=O)[C@H](Cc2ccccc2)NC(=O)[C@H](CCC(N)=O)NC(=O)[C@H]([C@@H](C)O)NC(=O)[C@@H]2CCCN2C(=O)[C@@H]2CCCN2C1=O [FD3] |
|  |  | 6.63 ± 0.64 | 8.23 ± 2.61 | 9.37 ± 0.61 | 7.67 ± 0.38 | 6.9 ± 0.51 | 8.1 ± 0.52 | 10.4 ± 1.84 | 11.9 ± 1.83 | CCCCCC(=O)N[C@H]1CSCc2cc(CSCCNC(=O)[C@H](CCCCNC(=O)CCCc3ccc(I)cc3)NC(=O)CN3CCN(CC(=O)O)CCN(CC(=O)O)CCN(CC(=O)O)CC3)cc(c2)CSC[C@@H](C(=O)O)NC(=O)[C@H](Cc2ccccc2)NC(=O)[C@H](CCC(N)=O)NC(=O)[C@H]([C@@H](C)O)NC(=O)[C@@H]2CCCN2C(=O)[C@@H]2CCCN2C1=O [[^68Ga]Ga-DOTA-FD2, metal not drawn] |
